Assay results from PMC5218480 (PLoS ONE, 2017).

Tested on: MV-4-11 cells
Experiment: Gene expression microarray analysis (Affymetrix PrimeView) and GSEA
Format: cell-based, human
Set-up: RFU PODN (11730768_x_at) / Fold change /veh PODN (11730768_x_at) / RFU LINC00158 (11744669_a_at) / Fold change /veh LINC00158 (11744669_a_at) / RFU DUSP10 (11751237_a_at) / Fold change /veh DUSP10 (11751237_a_at) / RFU ID3 (11757404_x_at) / Fold change /veh ID3 (11757404_x_at) / RFU PLEKHG5 (11737974_s_at) / Fold change /veh PLEKHG5 (11737974_s_at) / RFU LRRC4B (11730491_at) / Fold change /veh LRRC4B (11730491_at) / RFU GIMAP4 (11747438_a_at) / Fold change /veh GIMAP4 (11747438_a_at) / RFU KRT8 (11758183_x_at) / Fold change /veh KRT8 (11758183_x_at) / RFU CNN1 (11734310_a_at) / Fold change /veh CNN1 (11734310_a_at) / RFU VPS37D (11726825_at) / Fold change /veh VPS37D (11726825_at) / RFU C10orf10 (11716522_x_at) / Fold change /veh C10orf10 (11716522_x_at) / RFU KIR2DL2 /// KIR2DL4 /// KIR2DL5A /// KIR2DL5B /// KIR2DS1 /// KIR2DS2 /// KIR2DS3 /// KIR2DS4 /// KIR3DL3 /// KIR3DL3 /// KIR3DS1 (11738374_at) / Fold change /veh KIR2DL2 /// KIR2DL4 /// KIR2DL5A /// KIR2DL5B /// KIR2DS1 /// KIR2DS2 /// KIR2DS3 /// KIR2DS4 /// KIR3DL3 /// KIR3DL3 /// KIR3DS1 (11738374_at) / RFU C1QL1 (11718748_at) / Fold change /veh C1QL1 (11718748_at) / RFU TMPRSS4 (11747572_a_at) / Fold change /veh TMPRSS4 (11747572_a_at) / RFU HAMP (11756126_x_at) / Fold change /veh HAMP (11756126_x_at) / RFU RNFT2 (11725882_a_at) / Fold change /veh RNFT2 (11725882_a_at) / RFU NR4A2 (11747474_a_at) / Fold change /veh NR4A2 (11747474_a_at) / RFU ABCC12 (11746883_a_at) / Fold change /veh ABCC12 (11746883_a_at) / RFU TMEM136 (11760407_x_at) / Fold change /veh TMEM136 (11760407_x_at) / RFU CLDN22 /// WWC2 (11732394_at) / Fold change /veh CLDN22 /// WWC2 (11732394_at) / RFU HLA-DPB1 (11760878_x_at) / Fold change /veh HLA-DPB1 (11760878_x_at) / RFU SPINT1 (11716480_a_at) / Fold change /veh SPINT1 (11716480_a_at) / RFU GAP43 (11754022_s_at) / Fold change /veh GAP43 (11754022_s_at) / RFU A4GNT (11735810_at) / Fold change /veh A4GNT (11735810_at) / RFU PRB3 (11715151_x_at) / Fold change /veh PRB3 (11715151_x_at) / RFU TUBB4B (11761932_at) / Fold change /veh TUBB4B (11761932_at) / RFU CAPN14 (11732068_a_at) / Fold change /veh CAPN14 (11732068_a_at) / RFU TMCC2 (11721928_a_at) / Fold change /veh TMCC2 (11721928_a_at) / RFU IRGQ (11745062_a_at) / Fold change /veh IRGQ (11745062_a_at) / RFU FAM174B (11720279_a_at) / Fold change /veh FAM174B (11720279_a_at) / RFU TMPRSS4 (11748680_a_at) / Fold change /veh TMPRSS4 (11748680_a_at) / RFU FAM212B (11763350_a_at) / Fold change /veh FAM212B (11763350_a_at) / RFU PLEKHG5 (11743358_a_at) / Fold change /veh PLEKHG5 (11743358_a_at) / RFU ZSCAN30 (11745921_a_at) / Fold change /veh ZSCAN30 (11745921_a_at) / RFU CMKLR1 (11741424_a_at) / Fold change /veh CMKLR1 (11741424_a_at) / RFU LOC101060620 /// MAPK8IP1 (11723275_at) / Fold change /veh LOC101060620 /// MAPK8IP1 (11723275_at) / RFU SPTSSB (11747773_x_at) / Fold change /veh SPTSSB (11747773_x_at) / RFU PRSS12 (11739890_at) / Fold change /veh PRSS12 (11739890_at) / RFU BIN1 (11741810_x_at) / Fold change /veh BIN1 (11741810_x_at) / RFU WNT11 (11732464_a_at) / Fold change /veh WNT11 (11732464_a_at) / RFU C10orf10 (11716521_a_at) / Fold change /veh C10orf10 (11716521_a_at) / RFU C5orf56 (11738089_at) / Fold change /veh C5orf56 (11738089_at) / RFU CYB561 (11721691_x_at) / Fold change /veh CYB561 (11721691_x_at) / RFU ANKRD19P (11752326_a_at) / Fold change /veh ANKRD19P (11752326_a_at) / RFU OR2T12 /// OR2T33 /// OR2T8 (11738714_s_at) / Fold change /veh OR2T12 /// OR2T33 /// OR2T8 (11738714_s_at) / RFU VCAN (11748164_a_at) / Fold change /veh VCAN (11748164_a_at) / RFU JSRP1 (11732532_at) / Fold change /veh JSRP1 (11732532_at) / RFU KRTAP10-11 (11738290_x_at) / Fold change /veh KRTAP10-11 (11738290_x_at) / RFU MYO3A (11730013_a_at) / Fold change /veh MYO3A (11730013_a_at) / RFU EBF3 (11725865_a_at) / Fold change /veh EBF3 (11725865_a_at) / RFU CAMK2N1 (11719241_x_at) / Fold change /veh CAMK2N1 (11719241_x_at) / RFU C5orf56 (11738088_a_at) / Fold change /veh C5orf56 (11738088_a_at) / RFU OLFML3 (11715873_a_at) / Fold change /veh OLFML3 (11715873_a_at) / RFU LOC100653217 /// NTM (11731650_a_at) / Fold change /veh LOC100653217 /// NTM (11731650_a_at) / RFU MAPK11 (11762145_a_at) / Fold change /veh MAPK11 (11762145_a_at) / RFU FIZ1 (11724087_x_at) / Fold change /veh FIZ1 (11724087_x_at) / RFU OASL (11726364_x_at) / Fold change /veh OASL (11726364_x_at) / RFU SOX15 (11748057_x_at) / Fold change /veh SOX15 (11748057_x_at) / RFU CD79A (11719716_a_at) / Fold change /veh CD79A (11719716_a_at) / RFU HIST1H1D (11736915_at) / Fold change /veh HIST1H1D (11736915_at) / RFU CASKIN2 (11723855_a_at) / Fold change /veh CASKIN2 (11723855_a_at) / RFU LOC730098 (11760151_x_at) / Fold change /veh LOC730098 (11760151_x_at) / RFU OR4N2 (11742367_at) / Fold change /veh OR4N2 (11742367_at) / RFU PRRT2 (11749266_a_at) / Fold change /veh PRRT2 (11749266_a_at) / RFU SNX32 (11753110_a_at) / Fold change /veh SNX32 (11753110_a_at) / RFU CDHR5 (11726645_a_at) / Fold change /veh CDHR5 (11726645_a_at) / RFU RCAN1 (11760418_a_at) / Fold change /veh RCAN1 (11760418_a_at) / RFU FAM167A (11723789_a_at) / Fold change /veh FAM167A (11723789_a_at) / RFU FAM26E (11764081_at) / Fold change /veh FAM26E (11764081_at) / RFU ISYNA1 (11749810_s_at) / Fold change /veh ISYNA1 (11749810_s_at) / RFU ACY1 (11761880_at) / Fold change /veh ACY1 (11761880_at) / RFU 11764098_at / Fold change /veh 11764098_at / RFU SAMD14 (11745864_x_at) / Fold change /veh SAMD14 (11745864_x_at) / RFU NPB (11741838_a_at) / Fold change /veh NPB (11741838_a_at) / RFU TMPRSS6 (11731388_a_at) / Fold change /veh TMPRSS6 (11731388_a_at) / RFU KRTAP10-2 (11738614_at) / Fold change /veh KRTAP10-2 (11738614_at) / RFU ARHGAP8 /// PRR5-ARHGAP8 (11727945_x_at) / Fold change /veh ARHGAP8 /// PRR5-ARHGAP8 (11727945_x_at) / RFU KRTAP5-7 /// NADSYN1 (11734609_at) / Fold change /veh KRTAP5-7 /// NADSYN1 (11734609_at) / RFU RASL12 (11751679_a_at) / Fold change /veh RASL12 (11751679_a_at) / RFU CDKN2B (11736163_a_at) / Fold change /veh CDKN2B (11736163_a_at) / RFU PRF1 (11729649_at) / Fold change /veh PRF1 (11729649_at) / RFU, ZNF638 /// ZNF638-IT1 / Fold change vs veh, ZNF638 /// ZNF638-IT1 / RFU, PANK3 / Fold change vs veh, PANK3 / RFU, SH3YL1 / Fold change vs veh, SH3YL1 / RFU, ZEB2 / Fold change vs veh, ZEB2 / RFU, NRIP1 / Fold change vs veh, NRIP1 / RFU, PTTG1IP / Fold change vs veh, PTTG1IP / RFU, CAPN2 / Fold change vs veh, CAPN2 / RFU, MED14 / Fold change vs veh, MED14 / RFU, SNORA58 / Fold change vs veh, SNORA58 / RFU, C1orf63 / Fold change vs veh, C1orf63 / RFU, LRRFIP1 / Fold change vs veh, LRRFIP1 / RFU, NDUFAF7 / Fold change vs veh, NDUFAF7 / RFU, SLC12A2 / Fold change vs veh, SLC12A2 / RFU, IBTK / Fold change vs veh, IBTK / RFU, ESF1 / Fold change vs veh, ESF1 / Fold change vs veh, TMEM50B / RFU, TAOK1 / Fold change vs veh, TAOK1 / RFU, ACBD3 / Fold change vs veh, ACBD3 / RFU, TMA16 / Fold change vs veh, TMA16 / RFU, RWDD3 / Fold change vs veh, RWDD3 / RFU, BCAT1 / Fold change vs veh, BCAT1 / RFU, EDEM3 / Fold change vs veh, EDEM3 / RFU, TMEM33 / Fold change vs veh, TMEM33 / RFU, WDR75 / Fold change vs veh, WDR75 / RFU, AHCTF1 / Fold change vs veh, AHCTF1 / RFU, TFRC / Fold change vs veh, TFRC / RFU, ZDHHC17 / Fold change vs veh, ZDHHC17 / RFU, NOM1 / Fold change vs veh, NOM1 / RFU, ARL8B / Fold change vs veh, ARL8B / RFU, ZBTB11 / Fold change vs veh, ZBTB11 / RFU, TAMM41 / Fold change vs veh, TAMM41 / RFU, KIAA1704 /// LOC100996395 / Fold change vs veh, KIAA1704 /// LOC100996395 / RFU, ING1 / Fold change vs veh, ING1 / RFU, TRMT61B / Fold change vs veh, TRMT61B / RFU, FUBP3 / Fold change vs veh, FUBP3 / RFU, TP53 / Fold change vs veh, TP53 / RFU, TNKS2 / Fold change vs veh, TNKS2 / RFU, ZFP14 / Fold change vs veh, ZFP14 / RFU, ACTR2 / Fold change vs veh, ACTR2 / RFU, PPP3R1 / Fold change vs veh, PPP3R1 / RFU, PIK3R1 / Fold change vs veh, PIK3R1 / RFU, HNRNPA1 / Fold change vs veh, HNRNPA1 / RFU, RNF170 / Fold change vs veh, RNF170 / RFU, ZNF28 / Fold change vs veh, ZNF28 / RFU, RNGTT / Fold change vs veh, RNGTT / RFU, OGT / Fold change vs veh, OGT / RFU, BRD1 / Fold change vs veh, BRD1 / RFU, MARS / Fold change vs veh, MARS / RFU, ZNF655 / Fold change vs veh, ZNF655 / RFU, FAHD1 / Fold change vs veh, FAHD1 / RFU, BDP1 / Fold change vs veh, BDP1 / RFU, LRRCC1 / Fold change vs veh, LRRCC1 / RFU, ARID1A / Fold change vs veh, ARID1A / RFU, ZNF146 / Fold change vs veh, ZNF146 / RFU, ZNF330 / Fold change vs veh, ZNF330 / RFU, GPN3 / Fold change vs veh, GPN3 / RFU, C9orf123 / Fold change vs veh, C9orf123 / RFU, N4BP2L2 / Fold change vs veh, N4BP2L2 / RFU, ARFIP1 / Fold change vs veh, ARFIP1 / RFU, FAM179B / Fold change vs veh, FAM179B / RFU, BCL10 / Fold change vs veh, BCL10 / RFU, UHRF1BP1L / Fold change vs veh, UHRF1BP1L / RFU, BET1 / Fold change vs veh, BET1 / RFU, CNOT2 / Fold change vs veh, CNOT2 / RFU, ZNF268 / Fold change vs veh, ZNF268 / Fold change vs veh, ZNF507 / RFU, DGCR2 / Fold change vs veh, DGCR2 / RFU, WDSUB1 / Fold change vs veh, WDSUB1 / Fold change vs veh, HSP90B1 /// MIR3652 / RFU, ADSS / Fold change vs veh, ADSS / RFU, GK / Fold change vs veh, GK / RFU, ZNF148 / Fold change vs veh, ZNF148 / RFU, TAF9 / Fold change vs veh, TAF9 / RFU, SLC1A5 / Fold change vs veh, SLC1A5 / RFU, SLMO2 / Fold change vs veh, SLMO2 / RFU, ABCC4 / Fold change vs veh, ABCC4 / RFU, LOC101060439 /// RAP1B / Fold change vs veh, LOC101060439 /// RAP1B / RFU, RFX7 / Fold change vs veh, RFX7 / RFU, GTPBP10 / Fold change vs veh, GTPBP10 / RFU, CNEP1R1 / Fold change vs veh, CNEP1R1 / RFU, BIVM-ERCC5 /// ERCC5 / Fold change vs veh, BIVM-ERCC5 /// ERCC5 / RFU, ILF3 / Fold change vs veh, ILF3 / RFU 11762660_at / Fold change /veh 11762660_at / RFU VCAN (11757783_s_at) / Fold change /veh VCAN (11757783_s_at) / RFU DDX43 (11728927_at) / Fold change /veh DDX43 (11728927_at) / RFU KRT8 (11758188_x_at) / Fold change /veh KRT8 (11758188_x_at) / RFU NKD1 (11759106_at) / Fold change /veh NKD1 (11759106_at) / RFU SRD5A1 (11742802_a_at) / Fold change /veh SRD5A1 (11742802_a_at) / RFU TPSAB1 /// TPSB2 (11721975_s_at) / Fold change /veh TPSAB1 /// TPSB2 (11721975_s_at) / RFU GSTM3 (11746129_a_at) / Fold change /veh GSTM3 (11746129_a_at) / RFU IL23R (11737362_x_at) / Fold change /veh IL23R (11737362_x_at) / RFU TMEM51 (11727254_a_at) / Fold change /veh TMEM51 (11727254_a_at) / RFU PIWIL2 (11732686_x_at) / Fold change /veh PIWIL2 (11732686_x_at) / RFU ORM1 (11744905_x_at) / Fold change /veh ORM1 (11744905_x_at) / RFU CCDC152 (11743942_at) / Fold change /veh CCDC152 (11743942_at) / RFU ECM1 (11717891_a_at) / Fold change /veh ECM1 (11717891_a_at) / RFU IL23R (11748794_a_at) / Fold change /veh IL23R (11748794_a_at) / RFU TNFAIP8L3 (11732012_x_at) / Fold change /veh TNFAIP8L3 (11732012_x_at) / RFU MBOAT4 (11741988_at) / Fold change /veh MBOAT4 (11741988_at) / RFU 11764193_at / Fold change /veh 11764193_at / RFU TMEM53 (11763286_at) / Fold change /veh TMEM53 (11763286_at) / RFU MAGEB2 (11727129_at) / Fold change /veh MAGEB2 (11727129_at) / RFU TMEM200A (11744735_a_at) / Fold change /veh TMEM200A (11744735_a_at) / RFU CCDC152 (11751479_a_at) / Fold change /veh CCDC152 (11751479_a_at) / RFU FAM211A (11726209_a_at) / Fold change /veh FAM211A (11726209_a_at) / RFU RGS16 (11746705_a_at) / Fold change /veh RGS16 (11746705_a_at) / RFU VCAN (11755009_s_at) / Fold change /veh VCAN (11755009_s_at) / RFU RHOB (11743442_s_at) / Fold change /veh RHOB (11743442_s_at) / RFU RGS16 (11720943_a_at) / Fold change /veh RGS16 (11720943_a_at) / RFU RGS16 (11720944_at) / Fold change /veh RGS16 (11720944_at) / RFU, VPS4B / Fold change vs veh, VPS4B / RFU, CREB1 / Fold change vs veh, CREB1 / RFU, DNAJC13 / Fold change vs veh, DNAJC13 / RFU, GNAQ / Fold change vs veh, GNAQ / RFU, CDK5R1 / Fold change vs veh, CDK5R1 / RFU, ZRANB3 / Fold change vs veh, ZRANB3 / RFU, CUL4A / Fold change vs veh, CUL4A / RFU, CCNY / Fold change vs veh, CCNY / RFU, UFL1 / Fold change vs veh, UFL1 / RFU, COG3 / Fold change vs veh, COG3 / RFU, DIAPH2 / Fold change vs veh, DIAPH2 / RFU, SKA2 / Fold change vs veh, SKA2 / RFU, AFF3 / Fold change vs veh, AFF3 / RFU, LMF1 / Fold change vs veh, LMF1 / RFU, IPO11 / Fold change vs veh, IPO11 / RFU, DFFB / Fold change vs veh, DFFB / RFU, FOXP1 / Fold change vs veh, FOXP1 / RFU, CARD8 / Fold change vs veh, CARD8 / RFU, STRN3 / Fold change vs veh, STRN3 / RFU, ADK / Fold change vs veh, ADK / RFU, RASSF2 / Fold change vs veh, RASSF2 / RFU, WIPF1 / Fold change vs veh, WIPF1 / RFU, LARP1B / Fold change vs veh, LARP1B / RFU, RASA1 / Fold change vs veh, RASA1 / RFU, RB1 / Fold change vs veh, RB1 / RFU, PPFIA1 / Fold change vs veh, PPFIA1 / RFU, MAT2A / Fold change vs veh, MAT2A / RFU, CCT5 / Fold change vs veh, CCT5 / RFU, WDR92 / Fold change vs veh, WDR92 / RFU, CUX1 / Fold change vs veh, CUX1 / RFU, TTC7A / Fold change vs veh, TTC7A / RFU, TMEM135 / Fold change vs veh, TMEM135 / RFU, DEPTOR / Fold change vs veh, DEPTOR / RFU, CPM / Fold change vs veh, CPM / RFU, DNAJB6 / Fold change vs veh, DNAJB6 / RFU, CACNA2D3 / Fold change vs veh, CACNA2D3 / RFU, DTX4 / Fold change vs veh, DTX4 / RFU, TFCP2 / Fold change vs veh, TFCP2 / RFU, GMCL1 /// GMCL1P1 / Fold change vs veh, GMCL1 /// GMCL1P1 / RFU, AEBP2 / Fold change vs veh, AEBP2 / RFU, SNHG1 /// SNORD22 /// SNORD25 /// SNORD26 /// SNORD27 /// SNORD28 /// SNORD29 /// SNORD31 / Fold change vs veh, SNHG1 /// SNORD22 /// SNORD25 /// SNORD26 /// SNORD27 /// SNORD28 /// SNORD29 /// SNORD31 / Fold change (Aza/veh), C12orf56 (ProbeSet 11735607_a_at) / Fold change (ACY-1035/veh), C12orf56 (ProbeSet 11735607_a_at) / Fold change (Aza/veh), FGFR1OP (ProbeSet 11751329_s_at) / Fold change (ACY-1035/veh), FGFR1OP (ProbeSet 11751329_s_at) / Fold change (Aza/veh), VPS36 (ProbeSet 11739960_a_at) / Fold change (ACY-1035/veh), VPS36 (ProbeSet 11739960_a_at) / RFU SYPL1 (11715823_x_at) / Fold change /veh SYPL1 (11715823_x_at) / RFU IGFBP7 (11715501_s_at) / Fold change /veh IGFBP7 (11715501_s_at) / RFU REEP3 (11722064_at) / Fold change /veh REEP3 (11722064_at) / RFU IGLL1 (11728026_x_at) / Fold change /veh IGLL1 (11728026_x_at): dose or concentration left out as unconfirmed
Conditions: MV-4-11 cells, 48 hours

Question: With `Nc1ncn([C@@H]2O[C@H](CO)[C@@H](O)[C@H]2O)c(=O)n1` [azacitidine] as the compound, how does the “Fold change /veh RGS16 (11720943_a_at)” value read?
Answer: The value was 1.45.
